Measurements from ChEMBL document CHEMBL1156829 (Proc Natl Acad Sci U S A, 2008).

Tests used:
Plasmodium falciparum [1] = assay: NOVARTIS: Inhibition of Plasmodium falciparum 3D7 (drug-susceptible) proliferation in erythrocyte-based infection assay; format: functional, organism-based; conditions: Plasmodium falciparum, 3D7
Plasmodium falciparum [2] = assay: NOVARTIS: Inhibition of Plasmodium falciparum W2 (drug-resistant) proliferation in erythrocyte-based infection assay; format: functional, organism-based; conditions: Plasmodium falciparum, W2; read-out: EC50
[3] = NOVARTIS: Cytotoxicity against human hepatocellular carcinoma cell line (Huh7); format: toxicity, cell-based, Huh-7; conditions: Huh7 cells (hepatocellular carcinoma cell line)

Compound | EC50 (Plasmodium falciparum [1]) [nM] | EC50 (Plasmodium falciparum [2]) [nM] | CC50 [3] [nM]
CCN1/C(=C/C2=CC(=C/c3sc4ccccc4[n+]3CC)/CC(C)(C)C2)C=Cc2ccccc21 | 486 | 1030 | 42200
COc1ccc(C2C(C(=O)OC3CCCCC3)=C(C)Nc3nnnn32)cc1 (stereo not drawn) | > 10000 | > 11200 | > 74100
NC(=N[N+](=O)[O-])Nc1ccc(NC(=O)Nc2ccc(Cl)cc2)cc1 | > 900 | 298 | > 9610
Oc1ccc(-c2ccc(F)cc2)cc1CN1CCCCCC1 | 110 | 19.6 | > 100000
CCC1CCCCN1C(=O)c1cc(-c2ccccc2OC)on1 (stereo not drawn) | > 598 | 340 | > 10000
Cn1c(COc2ccc(Cl)cc2Cl)[n+](C)c2ccccc21 | 261 | 773 | > 10000
COc1cc(N)c(Cl)cc1C(=O)NCC1CCN(c2nc(C)cc(C)n2)CC1 | 345 | 531 | 64900
CCNC(=O)NCCSc1nc(-c2ccccc2)c(-c2ccccc2)n1CC | 1630 | 917 | > 100000
COc1ccc(-c2c[n+](-c3ccccc3)c3n2CCS3)cc1 | 778 | 784 | > 10000
CC(=O)N(C1=C(N2CCOCC2)C(=O)c2ccccc2C1=O)c1ccc(I)cc1 | 73.7 | 108 | 10000
CCN(CC)S(=O)(=O)c1cc(C(=O)O)ccc1Cl | 640 | > 1170 | > 10000
NN1C(=O)NC(=O)C1Nc1cccc([N+](=O)[O-])c1 (stereo not drawn) | 976 | 139 | > 12700
CC[n+]1c(C=C2C=C(C)OC(C)=C2)sc2ccccc21 | 147 | 119 | > 32000
CC1CCCN(Cc2nnnn2-c2ccc(Cl)cc2)C1 (stereo not drawn) | > 1010 | > 1250 | > 10000
O=C(Nc1ccc(-c2nc3cc(NC(=O)c4cccs4)ccc3[nH]2)cc1)c1cccs1 | 1550 | 2010 | > 100000
COC(=O)c1ccccc1NC(=O)COc1cccc(OC)c1 | > 1410 | 1860 | > 10000
Nc1nc(Nc2cccc(Cl)c2)n[nH]1 | 1680 | 958 | > 100000
O=C(CC1N=C2c3ccccc3N=C(SCc3cccc(F)c3)N2C1=O)NCc1cccs1 (stereo not drawn) | 1190 | 960 | > 100000
COc1cccc(C2Sc3ccccc3NC3=C2C(=O)c2ccccc23)c1 (stereo not drawn) | 577 | 362 | > 100000
COc1ccccc1N1CCN(Cc2cc(C(C)C)c(C)cc2O)CC1 | 623 | 85 | 77400
Cc1ccc(CN2C3CCCC2CC(NC(=O)Nc2cccc(F)c2)C3)cc1 (stereo not drawn) | 898 | 695 | > 10000
N=c1c2c(n(Cc3ccc(Cl)cc3)c3c1CCC3)CCCC2 | 222 | 533 | > 10000
CC(CCc1ccccc1)NCC(O)c1cccc([N+](=O)[O-])c1 (stereo not drawn) | 205 | 14.5 | 42500
Cc1cc(Nc2ccc(O)cc2)nc2cccc(O)c12 | 468 | 407 | 52400

Compound | EC50 (Plasmodium falciparum [1]) [nM] | EC50 (Plasmodium falciparum [2]) [nM] | CC50 [3] [nM]
COc1ccc(C(=O)C2CC2c2ccc(Cl)cc2)cc1 (stereo not drawn) | 217 | 1420 | > 100000
CCN(CC)CCN(Cc1cc2ccc(C)cc2[nH]c1=O)C(=S)NC(C)c1ccccc1 (stereo not drawn) | 1690 | 1340 | 21500
O=C(/C=C/c1ccccc1)NNC(=O)c1cccnc1 | > 1250 | > 750 | > 9450
CCOC(=O)C1=C(C)N(c2ccc(OCC)cc2)C(=O)/C1=C\c1ccc(C(C)C)cc1 | > 1280 | 439 | > 10000
Cc1ccc(-c2cc(-c3ccccc3)c(C#N)c(SCC(O)C[S+]([O-])Cc3ccccc3)n2)cc1 (stereo not drawn) | 7170 | 1650 | 39900
CCCCN(CC(=O)N1c2ccccc2-n2cccc2C1c1ccc(OC)cc1)C(=O)Nc1cccc(F)c1 (stereo not drawn) | 8600 | 6250 | > 100000
Cc1c2ccccc2c(C)c2ccccc12 | 803 | 827 | 21600
N=c1c2ccccc2nnn1-c1ccc(C(F)(F)F)cc1 | 392 | 575 | > 100000
CCOC(=O)C1=C(c2ccccc2)N=c2sc(=Cc3c(C)n(Cc4ccc(F)cc4)c4ccccc34)c(=O)n2C1c1cccc(OC)c1OC (stereo not drawn) | 1130 | 4620 | > 100000
Cc1cc(N2CCCCC2)nc(NCc2ccccc2)n1 | 5760 | 739 | 38400
O=C(COc1ccc(-c2ncccn2)cc1CN1CCCCCC1)NCc1ccccc1C(F)(F)F | > 1250 | > 1150 | > 10000
CC(=O)N1CCOC1C(C)(C)C/C=C(\C)CCC=C(C)C (stereo not drawn) | 806 | > 1690 | > 14100
CN(C)CC(C)(C)CNCc1cc(-c2ccccc2)ccc1O | 66.1 | 6.53 | 38000
N#CN=C(N)c1sc(Nc2ccccc2)nc1N | 806 | 2390 | 9370
O=C1C(=O)N(Cc2ccccc2[N+](=O)[O-])c2ccccc21 | 710 | 326 | > 100000
COc1cc(C(=O)Nc2c3c(nn2-c2cc(C)cc(C)c2)CSC3)cc(OC)c1OC | 907 | 341 | > 1070
CC(=O)Nc1ccc(NS(=O)(=O)c2cc([N+](=O)[O-])ccc2Cl)cc1 | > 12500 | 475 | > 100000
O=C1CSc2nc3ccccc3n21 | 7920 | 1060 | > 100000
CC(C)(C)CC(C)(C)Nc1c(-c2ccccc2OC(=O)/C=C/c2ccccc2)nc2ccccn12 | 457 | 34 | > 10000
C[n+]1ccc(C=Cc2ccc(Br)cc2)cc1 | 638 | 205 | > 100000
CC1=C(CC(=O)c2ccccc2)C(=O)c2ccccc2C1=O | 2660 | 300 | 13800
FC(F)(F)c1cccc(NC(=S)N2CCCC2c2ccncc2)c1 (stereo not drawn) | 327 | 370 | > 10000
Cc1ccc(CN2CCC(O)(c3ccc4oc(C(=O)NCCc5cccc(F)c5)cc4c3)CC2)cc1 | 4160 | 3010 | 43500
COc1ccccc1N1CCN(c2ccc(NC(=O)c3ccc(Br)cc3)cc2C(=O)NCCCN(C)C)CC1 | > 1250 | 117 | 1340

Compound | EC50 (Plasmodium falciparum [1]) [nM] | EC50 (Plasmodium falciparum [2]) [nM] | CC50 [3] [nM]
CCCN1CCC(N2C[C@@H](NC3CCCCCC3)C[C@H]2C(=O)NCCc2ccc3c(c2)OCO3)CC1 | 1110 | > 833 | > 13000
CCOC(=O)c1cnc2ccccc2c1Nc1ccc(C(C)=O)cc1 | 343 | 386 | > 73800
COc1ccccc1NC(=O)CCN1CCCC(C)C1 (stereo not drawn) | > 1650 | > 598 | > 10000
CCCCc1ccc(NC(C)=O)cc1 | 214 | 334 | 4210
COc1ccccc1N1CCN(C(=O)CCCCSc2nnc3c4cc(F)ccc4n(Cc4ccc(F)cc4)c3n2)CC1 | 265 | 207 | > 57700
COc1cccc(C(=O)NCc2nnc(S)n2-c2ccc(Cl)c(Cl)c2)c1 | 275 | 273 | > 100000
COc1ccc(CCN2C(=S)NC3c4cccc(OC)c4OC2(C)C3C(=O)Nc2ccc(C)cc2C)cc1OC (stereo not drawn) | 320 | 68.7 | > 100000
O=C1c2ccccc2C2=Nc3ccccc3SC(c3ccccc3F)C12 (stereo not drawn) | 209 | 278 | 22900
CCOC(=O)c1cnc2cc(Cl)c(OC)cc2c1NCCCN1CCOCC1 | 1370 | 1340 | > 10000
N#Cc1sccc1NS(=O)(=O)c1ccc(Cl)cc1 | > 1250 | > 413 | > 10000
CCCC(=O)N1CCN(c2nc(Cc3ccccc3)c3c(c2C#N)CC(C)(C)OC3)CC1 | 324 | 363 | > 90900
Cc1cccc(-c2nc3cc(NC(=S)NC(=O)c4ccc(Cl)cc4)ccc3o2)c1 | > 1660 | 183 | > 10000
COCCNC(=O)[C@@H]1C[C@@H](NCCC2=C(C)CCCC2(C)C)CN1C(C)C | > 12500 | 4300 | > 100000
Cc1ccc(C2CC3=Nc4ccccc4N(C(=O)C(F)(F)F)C(c4ccc(OCc5ccccc5)cc4)C3=C(O)C2)cc1 (stereo not drawn) | 1660 | 1560 | > 100000
COC(=O)C1=C(C)NC2=C(C(=O)CC(c3ccc(OC)c(OC)c3)C2)C1c1ccccc1C (stereo not drawn) | 125 | 31.7 | > 100000
CCC(C)NC(=O)C1CSC(c2cccc(F)c2)N1C(=O)c1cc(OC)c(OC)c(OC)c1 (stereo not drawn) | > 1250 | 29.8 | > 654
CCN1C=C(c2ccc(C)cc2)S/C1=C\c1sc2ccccc2[n+]1C | 362 | 938 | 18800
COCCNC(=O)c1ccc(NCCc2ccc(Cl)cc2)c(S(=O)(=O)Nc2cccc(C(F)(F)F)c2)c1 | 7340 | 6520 | > 100000
Oc1cccc(Nc2nc(NCC3CCCO3)c3ccccc3n2)c1 (stereo not drawn) | 266 | 341 | 6980
COc1cc(C2C3=C(CC(C)(C)CC3=O)Nc3ccccc3N2C(=O)C(C)C)cc(OC)c1OC (stereo not drawn) | > 1250 | 40.7 | > 10000
CC(C)CCNCC(O)Cn1c2ccc(Cl)cc2c2cc(Cl)ccc21 (stereo not drawn) | 192 | 96.6 | 20600
CCN(CC)CCCN(Cc1cc2cc(OC)c(OC)cc2[nH]c1=O)C(=S)Nc1cccc(Cl)c1 | 698 | 707 | 18900
CCOc1ccc(NC(=O)C2c3ccccc3C(=O)N(CC(C)C)C2c2cccs2)cc1 (stereo not drawn) | 78.3 | 36.7 | > 100000
